Data reported in publication PMC4831468, “White collar 1‐induced photolyase expression contributes to UV‐tolerance of Ustilago maydis” (MicrobiologyOpen, 2015).

Assays:
Format in all cases: binding
[1] = target: T1, Cry1 (Mycosarcoma maydis, UniProt A0A0D1CDQ8); experiment: UV-Vis absorption spectroscopy of copurified chromophore; blue-light photoreduction; conditions: copurified from E. coli; photoreduction with 10 mM DTT, pH 7.5, 15 C
T1 construct: gene UMAG_01131; pET51b, 10xHis- and Strep-tagged, synthetic cDNA, E. coli BL21(DE3)
T1 sequence (A0A0D1CDQ8 1-881): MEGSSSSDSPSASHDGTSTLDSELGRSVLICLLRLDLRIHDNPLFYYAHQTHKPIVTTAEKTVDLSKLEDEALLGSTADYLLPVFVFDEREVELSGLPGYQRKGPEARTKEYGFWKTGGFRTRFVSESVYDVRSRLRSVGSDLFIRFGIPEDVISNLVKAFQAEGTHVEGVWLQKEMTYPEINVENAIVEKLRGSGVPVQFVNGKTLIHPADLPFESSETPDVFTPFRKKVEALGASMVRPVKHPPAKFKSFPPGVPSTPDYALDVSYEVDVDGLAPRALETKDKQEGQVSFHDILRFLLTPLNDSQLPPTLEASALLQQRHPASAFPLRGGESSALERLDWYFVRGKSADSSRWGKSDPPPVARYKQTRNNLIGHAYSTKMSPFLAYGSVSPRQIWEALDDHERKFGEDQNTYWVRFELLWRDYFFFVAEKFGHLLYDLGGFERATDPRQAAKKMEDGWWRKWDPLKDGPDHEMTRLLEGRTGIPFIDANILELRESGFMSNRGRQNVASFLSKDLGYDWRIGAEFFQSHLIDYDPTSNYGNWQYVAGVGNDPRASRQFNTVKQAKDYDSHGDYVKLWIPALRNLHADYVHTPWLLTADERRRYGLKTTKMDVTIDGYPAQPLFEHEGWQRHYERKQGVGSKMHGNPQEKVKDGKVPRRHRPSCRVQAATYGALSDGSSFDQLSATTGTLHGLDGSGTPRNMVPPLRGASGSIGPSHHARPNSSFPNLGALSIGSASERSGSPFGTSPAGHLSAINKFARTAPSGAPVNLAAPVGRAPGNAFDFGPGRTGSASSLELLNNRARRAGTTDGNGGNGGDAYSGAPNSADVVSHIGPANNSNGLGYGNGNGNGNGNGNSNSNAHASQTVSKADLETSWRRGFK

[2] = target: T2, Phr1 (Mycosarcoma maydis, UniProt A0A0D1DNG6); experiment: as above; conditions: copurified from E. coli; photoreduction with 10 mM DTT, pH 7.5, 15 C
T2 construct: gene UMAG_06079
T2 sequence (A0A0D1DNG6 1-655): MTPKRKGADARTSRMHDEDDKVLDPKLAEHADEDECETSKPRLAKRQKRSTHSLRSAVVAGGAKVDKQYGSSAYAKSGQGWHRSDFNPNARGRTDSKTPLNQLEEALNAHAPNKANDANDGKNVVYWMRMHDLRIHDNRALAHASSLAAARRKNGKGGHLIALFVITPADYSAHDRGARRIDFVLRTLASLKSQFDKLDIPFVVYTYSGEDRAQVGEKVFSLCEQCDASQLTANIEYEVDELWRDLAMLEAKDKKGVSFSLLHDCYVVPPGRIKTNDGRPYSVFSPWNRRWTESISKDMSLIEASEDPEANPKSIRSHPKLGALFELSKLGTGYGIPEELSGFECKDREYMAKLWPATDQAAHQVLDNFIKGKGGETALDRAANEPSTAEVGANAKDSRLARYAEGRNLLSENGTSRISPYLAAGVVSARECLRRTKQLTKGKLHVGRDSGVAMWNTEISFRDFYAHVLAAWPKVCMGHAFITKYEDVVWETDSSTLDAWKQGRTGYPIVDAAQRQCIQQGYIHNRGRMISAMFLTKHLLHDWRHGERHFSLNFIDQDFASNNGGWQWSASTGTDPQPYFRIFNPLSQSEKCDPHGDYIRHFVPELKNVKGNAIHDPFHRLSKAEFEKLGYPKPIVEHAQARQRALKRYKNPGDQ

[3] = target: T3, Cry2 (Mycosarcoma maydis, UniProt A0A0D1DUB1); experiment: as above; conditions: copurified from E. coli; photoreduction with 10 mM DTT, pH 7.5, 15 C
T3 construct: gene UMAG_05917; pET51b, 10xHis- and Strep-tagged, E. coli Arctic Express
T3 sequence (A0A0D1DUB1 1-623): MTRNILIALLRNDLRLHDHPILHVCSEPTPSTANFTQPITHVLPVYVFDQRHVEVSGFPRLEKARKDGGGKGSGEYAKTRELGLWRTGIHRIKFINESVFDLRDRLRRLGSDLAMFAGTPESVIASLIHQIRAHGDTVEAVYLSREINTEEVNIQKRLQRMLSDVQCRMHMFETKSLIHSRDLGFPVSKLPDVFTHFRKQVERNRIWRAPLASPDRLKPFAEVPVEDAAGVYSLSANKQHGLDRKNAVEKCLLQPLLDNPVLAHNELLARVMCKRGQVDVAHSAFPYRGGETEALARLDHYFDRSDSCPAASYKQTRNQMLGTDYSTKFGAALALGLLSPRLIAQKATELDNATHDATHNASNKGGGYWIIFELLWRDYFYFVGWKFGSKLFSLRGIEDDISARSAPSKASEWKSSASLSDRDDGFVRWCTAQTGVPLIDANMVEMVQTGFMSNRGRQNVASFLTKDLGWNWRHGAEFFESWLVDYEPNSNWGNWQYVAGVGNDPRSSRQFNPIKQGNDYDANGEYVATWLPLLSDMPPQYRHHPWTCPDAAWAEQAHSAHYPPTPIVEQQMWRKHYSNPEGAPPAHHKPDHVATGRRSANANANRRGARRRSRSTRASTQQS

[4] = target: T4, Phr2 (Mycosarcoma maydis, UniProt A0A0D1E060); experiment: as above; conditions: copurified from E. coli; photoreduction with 10 mM DTT, pH 7.5, 15 C
T4 construct: gene UMAG_02144; pET51b, 10xHis- and Strep-tagged, E. coli Rosetta(DE3)
T4 sequence (A0A0D1E060 1-684): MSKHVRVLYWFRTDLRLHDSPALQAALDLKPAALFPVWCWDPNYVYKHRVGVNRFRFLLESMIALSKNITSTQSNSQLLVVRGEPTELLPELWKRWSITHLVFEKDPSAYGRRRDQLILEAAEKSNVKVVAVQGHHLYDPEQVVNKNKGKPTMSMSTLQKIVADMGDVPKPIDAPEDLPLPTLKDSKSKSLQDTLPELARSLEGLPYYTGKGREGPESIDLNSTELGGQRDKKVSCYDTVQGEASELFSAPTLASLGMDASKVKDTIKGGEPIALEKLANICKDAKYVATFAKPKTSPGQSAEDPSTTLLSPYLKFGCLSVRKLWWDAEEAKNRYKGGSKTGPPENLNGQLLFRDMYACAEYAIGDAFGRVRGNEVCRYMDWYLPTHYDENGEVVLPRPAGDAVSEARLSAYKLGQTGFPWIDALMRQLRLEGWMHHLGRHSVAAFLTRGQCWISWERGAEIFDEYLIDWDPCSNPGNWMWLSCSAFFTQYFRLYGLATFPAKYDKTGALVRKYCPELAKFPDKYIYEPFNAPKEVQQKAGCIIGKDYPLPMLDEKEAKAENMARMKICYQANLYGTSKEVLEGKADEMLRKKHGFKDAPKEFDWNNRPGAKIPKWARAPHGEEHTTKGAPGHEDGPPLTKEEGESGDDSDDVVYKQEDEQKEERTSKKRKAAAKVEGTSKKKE

[5] = target: T2, Phr1; experiment: UV-Vis absorption spectroscopy of copurified chromophore (about […] nm peak); conditions: copurified from E. coli; antenna chromophore, second site beside FAD; assigned from spectrum only
[6] = target: T3, Cry2; experiment: as above; conditions: copurified from E. coli; antenna chromophore, second site beside FAD; assigned from spectrum only

Row | Compound | UV-Vis absorption spectroscopy of copurified chromophore; blue-light photoreduct [1] | UV-Vis absorption spectroscopy of copurified chromophore; blue-light photoreduct [2] | UV-Vis absorption spectroscopy of copurified chromophore; blue-light photoreduct [3] | UV-Vis absorption spectroscopy of copurified chromophore; blue-light photoreduct [4] | UV-Vis absorption spectroscopy of copurified chromophore (about 380 nm peak) [5] | UV-Vis absorption spectroscopy of copurified chromophore (about 380 nm peak) [6]
1 | Cc1cc2nc3c(=O)[nH]c(=O)nc-3n(C[C@H](O)[C@H](O)[C@H](O)COP(=O)(O)OP(=O)(O)OC[C@H]3O[C@@H](n4cnc5c(N)ncnc54)[C@H](O)[C@@H]3O)c2cc1C [FAD] | these data proved that all CPF members of U. maydis bind FAD | these data proved that all CPF members of U. maydis bind FAD | these data proved that all CPF members of U. maydis bind FAD | these data proved that all CPF members of U. maydis bind FAD | – | –
2 | Nc1nc2c(c(=O)[nH]1)[N+]1=CN(c3ccc(C(=O)N[C@@H](CCC(=O)O)C(=O)O)cc3)C[C@H]1CN2 [MTHF] | – | – | – | – | Methenyltetrahydrofolate (MTHF) is the second cofactor of Cry2 and Phr1 | Methenyltetrahydrofolate (MTHF) is the second cofactor of Cry2 and Phr1
